Laboratory results from the C3SDB collision cross section collection.

Conditions: instrument: TW, calibrated with polyalanine and drug standards

Row | collision cross section (N2) ([M+H]+) | Structure (SMILES) | other results
1 | 208.3 Å² | CC(C)CCC[C@@H](C)[C@H]1CC[C@H]2[C@@H]3C(=O)C=C4C[C@@H](O)CC[C@]4(C)[C@H]3CC[C@]12C [7-OXOCHOLESTEROL] | 
2 | 202.9 Å² | CC1(C)C(=O)[C@@H]2C[C@@]3(O)C4=CC(=O)O[C@@H](c5ccoc5)[C@]4(C)CCC3C(C)(C2=O)[C@H]1CC(=O)O (stereo partly specified) [8-HYDROXYCARAPINIC ACID] | 
3 | 148.1 Å² | Cc1ccc2c(c1)CC[C@H]1CC(=O)CC[C@]21C [13-METHYL-4,4-BISNOR-8,11,13-PODOCARPATRIEN-3-ONE] | 
4 | 160.3 Å² | COc1ccc(-c2cc(=O)c3c(O)cc(O)cc3o2)cc1 [ACACETIN] | 
5 | 191 Å² | COc1ccc2c(c1)c(CC(=O)OCC(=O)O)c(C)n2C(=O)c1ccc(Cl)cc1 [ACEMETACIN] | 
6 | 168.2 Å² | CC(=O)Nc1ccc(OC(=O)c2ccccc2O)cc1 [ACETAMINOSALOL] | 
7 | 140.7 Å² | CC(=O)Nc1nnc(S(N)(=O)=O)s1 [ACETAZOLAMIDE] | 
8 | 162 Å² | CCCSc1ccc2nc(NC(=O)OC)[nH]c2c1 [ALBENDAZOLE] | 
9 | 123 Å² | O=c1ncnc2[nH][nH]cc1-2 [ALLOPURINOL] | 
10 | 158.6 Å² | C=CCc1ccccc1OCC(O)CNC(C)C (stereo unspecified) [ALPRENOLOL] | 
11 | 145.6 Å² | CN(C)c1nc(N(C)C)nc(N(C)C)n1 [ALTRETAMINE] | 
12 | 214.9 Å² | CC(=O)OCC(=O)[C@@]12OC3(CCCC3)O[C@@H]1C[C@H]1[C@@H]3CCC4=CC(=O)C=C[C@]4(C)[C@@]3(F)[C@@H](O)C[C@@]12C [AMCINONIDE] | 

Further lines, the molecule ahead of its results:

Row | Structure (SMILES) | collision cross section (N2) ([M+H]+) | other results
13 | COc1cc2oc3cc(OC)c(OC)c(CC=C(C)C)c3c(=O)c2c(O)c1CC=C(C)C [1-HYDROXY-3,6,7-TRIMETHOXY-2,8-DIPRENYLXANTHONE] | 209.7 Å² | 
14 | COc1cc(O)c(C(=O)/C=C/c2ccc(O)c(OC)c2)c(OC)c1 [2',4-DIHYDROXY-3,4',6'-TRIMETHOXYCHALCONE] | 177.5 Å² | 
15 | O=c1[nH]c2cc(Cl)c(Cl)cc2[nH]c1=O [2,3-DIHYDROXY-6,7-DICHLOROQUINOXALINE] | 143 Å² | 
16 | COC1=CC(=O)C(C(=O)c2ccccc2)=CC1=O [2-BENZOYL-5-METHOXYBENZOQUINONE] | 145.4 Å² | 
17 | CCOc1cccc(C(=O)c2ccc(O)c(O)c2O)c1 [3,4-DIDESMETHYL-5-DESHYDROXY-3'-ETHOXYSCLEROIN] | 160.3 Å² | 
18 | O=c1c(O)c(-c2ccccc2)oc2cc(O)ccc12 [3,7-DIHYDROXYFLAVONE] | 152.1 Å² | 
19 | CC(=O)c1cc2ccccc2oc1=O [3-ACETYLCOUMARIN] | 131.6 Å² | 
20 | COc1ccc2c(c1)OC[C@@H](Cc1ccc(OC)c(OC)c1)[C@@H]2O [3-DESHYDROXYSAPPANOL TRIMETHYL ETHER] |  | collision cross section (N2) ([M+H-H2O]+): 172.3 Å²
21 | COc1ccc(-c2oc3ccccc3c(=O)c2O)cc1OC [3-HYDROXY-3',4'-DIMETHOXYFLAVONE] | 164.1 Å² | 
22 | CC1(C)CC2C1CC[C@]1(C)CCC3C(C(=O)O)CC(=O)O[C@@]32C1 (stereo partly specified) [3-HYDROXY-4-(SUCCIN-2-YL)-CARYOLANE delta-LACTONE] | 174.9 Å² | 
23 | O=c1c(O)c(-c2ccccc2)oc2ccccc12 [3-HYDROXYFLAVONE] | 146.3 Å² | 
24 | CC(C)Cn1c(=O)n(C)c(=O)c2[nH]cnc21 [3-ISOBUTYL-1-METHYLXANTHINE (IBMX)] | 147.8 Å² | 
25 | Cc1cc(O)c(C)c(O)c1C(=O)O [3-METHYLORSELLINIC ACID] |  | collision cross section (N2) ([M+H-H2O]+): 127.5 Å²
26 | Cn1c(=O)[nH]c(=O)c2[nH]cnc21 [3-METHYLXANTHINE] | 127.9 Å² | 
27 | C[C@]12CC[C@@H](O)C[C@H]1CCc1ccccc12 [3alpha-HYDROXY-4,4-BISNOR-8,11,13-PODOCARPATRIENE] | 140.4 Å² | 
28 | Cc1cc(=O)oc2c(O)c(O)ccc12 [4-METHYLDAPHNETIN] | 134.8 Å² | 
29 | COc1cc(O)c(C(C)=O)c(O)c1 [4-O-METHYLPHLORACETOPHENONE] | 130.5 Å² | 

Row | Structure (SMILES) | collision cross section (N2) ([M+H]+) | other results
30 | O=c1c(-c2ccccc2)coc2cc(O)cc(O)c12 [5,7-DIHYDROXYISOFLAVONE] | 152.3 Å² | 
31 | O=C(O)c1cc2cc(F)ccc2[nH]1 [5-FLUOROINDOLE-2-CARBOXYLIC ACID] | 145.3 Å² | 
32 | COc1ccc2oc(-c3ccccc3OC)cc(=O)c2c1 [6,2'-DIMETHOXYFLAVONE] | 161.4 Å² | 
33 | COc1cccc(-c2cc(=O)c3cc(OC)ccc3o2)c1 [6,3'-DIMETHOXYFLAVONE] | 162.1 Å² | 
34 | O=c1cc(-c2ccccc2O)oc2cc(O)ccc12 [7,2'-DIHYDROXYFLAVONE] | 152.4 Å² | 
35 | O=c1cc(-c2ccc(O)cc2)oc2cc(O)ccc12 [7,4'-DIHYDROXYFLAVONE] | 153.2 Å² | 
36 | O=c1cc(-c2ccccc2)oc2c(O)c(O)ccc12 [7,8-DIHYDROXYFLAVONE] | 152 Å² | 
37 | CC(=O)O[C@H]1C[C@@H](OC(C)=O)C(C)(C)C2CC(=O)[C@]3(C)C(CC[C@@]4(C)[C@H](c5ccoc5)OC(=O)[C@H]5O[C@]543)[C@]21C (stereo partly specified) [7-DEACETOXY-7-OXOKHIVORIN] | 217.7 Å² | 
38 | CC(=O)Nc1cc([As](=O)(O)O)ccc1O [ACETARSOL] | 151.5 Å² | 
39 | CC(=O)N[C@@H]1[C@@H](O)[C@H](O)[C@@H](CO)O[C@H]1O [ACETYLGLUCOSAMINE] |  | collision cross section (N2) ([M+Na]+): 153.5 Å²
40 | CC(=O)NCCCCCC(=O)O [ACEXAMIC ACID] |  | collision cross section (N2) ([M+Na]+): 141.4 Å²
41 | O=c1ccc2cc(O[C@@H]3O[C@H](CO)[C@@H](O)[C@H](O)[C@H]3O)c(O)cc2o1 [AESCULIN] | 174 Å² | 
42 | C=C1CC[C@H]2C(C)(C)CCC[C@]2(C)[C@H]1CC/C(C)=C/Cn1c[n+](C)c2ncnc(N)c21 [AGELASINE D] |  | collision cross section (N2) ([M]+): 212.2 Å²
43 | CC[C@H]1[C@@H]2C[C@H]3[C@@H]4N(C)c5ccccc5[C@]45C[C@@H]([C@H]2[C@H]5O)N3[C@@H]1O [AJMALINE] | 172.9 Å² | 
44 | C=CCS(=O)C[C@H](N)C(=O)O (stereo partly specified) [ALLIIN] |  | collision cross section (N2) ([M+Na]+): 134.5 Å²
45 | CN1C2CCC1CC(OC(c1ccccc1)c1ccccc1N)C2 (stereo unspecified) [AMINOBENZTROPINE] | 180.6 Å² | 
46 | CCC1(c2ccc(N)cc2)CCC(=O)NC1=O (stereo unspecified) [AMINOGLUTETHIMIDE] | 164.8 Å² | 
